For 24 compounds, IC50 results are on record in patent US9828396B2, “Alkyne compounds for treatment of complement mediated disorders” (Achillion Pharmaceuticals, Inc., priority 2014, dated 2017).

This test deals with Human factor D (Homo sapiens (Human), UniProt P00746). As to the kind of experiment: Human Factor D Assay. The note with it: Human factor D 80 nM, substrate Z-L-Lys-SBzl, assay of Example 12. The class given is biochemical. How it is done: Example 12. Human Factor D Assay
Chain of Human factor D (P00746 26-253): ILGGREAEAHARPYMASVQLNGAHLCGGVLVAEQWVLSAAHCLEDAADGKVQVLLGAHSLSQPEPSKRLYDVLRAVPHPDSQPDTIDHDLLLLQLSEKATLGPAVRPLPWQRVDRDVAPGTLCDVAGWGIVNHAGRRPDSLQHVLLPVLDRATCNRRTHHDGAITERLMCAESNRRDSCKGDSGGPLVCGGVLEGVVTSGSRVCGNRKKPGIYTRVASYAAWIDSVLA
Human factor D (purified from human serum, Complement Technology, Inc.) at 80 nM final concentration is incubated with test compound at various concentrations for 5 minutes at room temperature in 50 mM Tris, 1M NaCl, pH 7.5. A synthetic substrate Z-L-Lys-SBzl and DTNB (Ellman's reagent) are added to final concentrations of 100 μM each. The increase in color is recorded at OD405 nm in a microplate in kinetic mode over 30 minutes with 30 second time points in a spectrofluorimeter. IC50 values are calculated by non-linear regression from the percentage of inhibition of complement factor D activity as a function of test compound concentration.
For `NC(=O)c1nn(CC(=O)N2[C@@H]3C[C@@H]3C[C@H]2C(=O)Nc2cccc(-c3ccccc3Cl)c2F)c2ccc(C#Cc3ncccn3)cc12` [Compound 27, 1-(2-((1R,3S,5R)-3-(2′ chloro-2-fluorobiphenyl-3-ylcarbamoyl)-2-azabicyclo[3.1.0]hexan-2-yl)-2-oxoethyl)-5-(pyrimidin-2-ylethynyl)-1H-indazole-3-carboxamide], the IC50 is < 1 µM.

On to `NC(=O)c1nn(CC(=O)N2C[C@H](F)C[C@H]2C(=O)Nc2cccc(-c3ncccc3Cl)c2F)c2ccc(C#Cc3ncccn3)cc12` [Compound 28, 1-(2-((2S,4R)-2-(3-(3-chloropyridin-2-yl)-2-fluorophenylcarbamoyl)-4-fluoropyrrolidin-1-yl)-2-oxoethyl)-5-(pyrimidin-2-ylethynyl)-1H-indazole-3-carboxamide], for which the IC50 is < 1 µM.

In the case of `NC(=O)c1nn(CC(=O)N2C[C@H](F)C[C@H]2C(=O)NCc2cccc(Cl)c2F)c2ccc(C#Cc3cn[nH]c3)cc12` [Compound 29, 5-((1H-pyrazol-4-yl)ethynyl)-1-(2-((2S,4R)-2-(3-chloro-2-fluorobenzylcarbamoyl)-4-fluoropyrrolidin-1-yl)-2-oxoethyl)-1H-indazole-3-carboxamide], the IC50 is < 1 µM. The result for `NC(=O)c1nn(CC(=O)N2C[C@H](F)C[C@H]2C(=O)Nc2cccc(-c3cccc(Cl)c3)c2F)c2ccc(C#Cc3ncccn3)cc12` [Compound 30, 1-(2-((2S,4R)-2-(3′-chloro-2-fluorobiphenyl-3-ylcarbamoyl)-4-fluoropyrrolidin-1-yl)-2-oxoethyl)-5-(pyrimidin-2-ylethynyl)-1H-indazole-3-carboxamide] reads < 1 µM; that for `NC(=O)c1nn(CC(=O)N2C[C@H](F)C[C@H]2C(=O)N2CCc3c([nH]c4ccccc34)C2)c2ccc(C#Cc3ncccn3)cc12` [Compound 31, 1-(2-((2S,4R)-4-fluoro-2-(2,3,4,9-tetrahydro-1H-pyrido[3,4-b]indole-2-carbonyl)pyrrolidin-1-yl)-2-oxoethyl)-5-(pyrimidin-2-ylethynyl)-1H-indazole-3-carboxamide], > 10 µM; that for `NC(=O)c1nn(CC(=O)N2C[C@H](F)C[C@H]2C(=O)NCc2cccc(Cl)c2F)c2cnc(C#Cc3ncccn3)cc12` [Compound 32, 1-(2-((2S,4R)-2-(3-chloro-2-fluorobenzylcarbamoyl)-4-fluoropyrrolidin-1-yl)-2-oxoethyl)-5-(pyrimidin-2-ylethynyl)-1H-pyrazolo[3,4-c]pyridine-3-carboxamide], < 1 µM.

Regarding `NC(=O)c1nn(CC(=O)N2C[C@H](F)C[C@H]2C(=O)Nc2cccc(C(F)(F)F)n2)c2ccc(C#Cc3ncccn3)cc12` [Compound 33, 1-(2-((2S,4R)-4-fluoro-2-(6-(trifluoromethyl)pyridin-2-ylcarbamoyl)pyrrolidin-1-yl)-2-oxoethyl)-5-(pyrimidin-2-ylethynyl)-1H-indazole-3-carboxamide], the IC50 was < 1 µM. For `NC(=O)c1nn(CC(=O)N2[C@@H]3C[C@@H]3C[C@H]2C(=O)Nc2cccc(OC(F)(F)F)c2F)c2ccc(C#Cc3ncccn3)cc12` [Compound 34, 1-(2-((1R,3S,5R)-3-(2-fluoro-3-(trifluoromethoxy)phenyl-carbamoyl)-2-azabicyclo[3.1.0]hexan-2-yl)-2-oxoethyl)-5-(pyrimidin-2-ylethynyl)-1H-indazole-3-carboxamide] the value was < 1 µM; for `NC(=O)c1nn(CC(=O)N2C[C@H](F)C[C@H]2C(=O)NCc2cccc(Cl)c2F)c2ccc(C#Cc3ccc(F)cn3)cc12` [Compound 35, 1-(2-((2S,4R)-2-(3-chloro-2-fluorobenzylcarbamoyl)-4-fluoropyrrolidin-1-yl)-2-oxoethyl)-5-((5-fluoropyridin-2-yl)ethynyl)-1H-indazole-3-carboxamide], < 1 µM. The result for `NC(=O)c1nn(CC(=O)N2C[C@H](F)C[C@H]2C(=O)NCc2cccc(Cl)c2F)c2ccc(C#Cc3cccc(N)n3)cc12` [Compound 36, 5-((6-aminopyridin-2-yl)ethynyl)-1-(2-((2S,4R)-2-(3-chloro-2-fluorobenzylcarbamoyl)-4-fluoropyrrolidin-1-yl)-2-oxoethyl)-1H-indazole-3-carboxamide] reads < 1 µM; that for `NC(=O)c1nn(CC(=O)N2C[C@H](F)C[C@H]2C(=O)NCc2cccc(Cl)c2F)c2ccc(C#Cc3cccc(F)n3)cc12` [Compound 37, 1-(2-((2S,4R)-2-(3-chloro-2-fluorobenzylcarbamoyl)-4-fluoropyrrolidin-1-yl)-2-oxoethyl)-5-((6-fluoropyridin-2-yl)ethynyl)-1H-indazole-3-carboxamide], < 1 µM; that for `NC(=O)c1nn(CC(=O)N2C[C@H](F)C[C@H]2C(=O)Nc2cccc(OC(F)(F)F)c2F)c2ccc(C#Cc3ncccn3)cc12` [Compound 38, 1-(2-((2S,4R)-4-fluoro-2-(2-fluoro-3-(trifluoromethoxy)phenyl-carbamoyl)pyrrolidin-1-yl)-2-oxoethyl)-5-(pyrimidin-2-ylethynyl)-1H-indazole-3-carboxamide], < 1 µM. The result for `NC(=O)c1nn(CC(=O)N2C[C@H](F)C[C@H]2C(=O)Nc2cccc(Br)n2)c2ccc(C#Cc3ncccn3)cc12` [Compound 39, 1-(2-((2S,4R)-2-(6-bromopyridin-2-ylcarbamoyl)-4-fluoropyrrolidin-1-yl)-2-oxoethyl)-5-(pyrimidin-2-ylethynyl)-1H-indazole-3-carboxamide] reads < 1 µM; that for `NC(=O)c1nn(CC(=O)N2C[C@H](F)C[C@H]2C(=O)NCc2cccc(Cl)c2F)c2ccc(C#Cc3ncc(F)cn3)cc12` [Compound 40, 1-(2-((2S,4R)-2-(3-chloro-2-fluorobenzylcarbamoyl)-4-fluoropyrrolidin-1-yl)-2-oxoethyl)-5-((5-fluoropyrimidin-2-yl)ethynyl)-1H-indazole-3-carboxamide], < 1 µM. For the compound `NC(=O)c1nn(CC(=O)N2[C@@H]3C[C@@H]3C[C@H]2C(=O)Nc2cccc(Br)n2)c2ccc(C#Cc3ncccn3)cc12` [Compound 41, 1-(2-((1R,3S,5R)-3-(6-bromopyridin-2-ylcarbamoyl)-2-azabicyclo[3.1.0]hexan-2-yl)-2-oxoethyl)-5-(pyrimidin-2-ylethynyl)-1H-indazole-3-carboxamide], the concentration for half-maximal inhibition (IC50) is < 1 µM.

For the compound `CC(=O)c1cn(CC(=O)N2C[C@H](F)C[C@H]2C(=O)Nc2cccc(Br)n2)c2ccc(C#Cc3ncccn3)cc12` [Compound 42, (2S,4R)-1-(2-(3-acetyl-5-(pyrimidin-2-ylethynyl)-1H-indol-1-yl)acetyl)-N-(6-bromopyridin-2-yl)-4-fluoropyrrolidine-2-carboxamide], the IC50 is < 1 µM. For `NC(=O)c1nn(CC(=O)N2[C@@H]3C[C@@H]3C[C@H]2C(=O)Nc2cccc(Br)n2)c2ccc(C#Cc3ncc(F)cn3)cc12` [Compound 43, 1-(2-((1R,3S,5R)-3-(6-bromopyridin-2-ylcarbamoyl)-2-azabicyclo[3.1.0]hexan-2-yl)-2-oxoethyl)-5-((5-fluoropyrimidin-2-yl)ethynyl)-1H-indazole-3-carboxamide] the value was < 1 µM.

On to `CC1(C)CCCC(NC(=O)[C@@H]2C[C@@H](F)CN2C(=O)Cn2nc(C(N)=O)c3cc(C#Cc4ncccn4)ccc32)C1` (stereo partly drawn) [Compound 44, 1-(2-((2S,4R)-2-(3,3-dimethylcyclohexylcarbamoyl)-4-fluoropyrrolidin-1-yl)-2-oxoethyl)-5-(pyrimidin-2-ylethynyl)-1H-indazole-3-carboxamide], for which the IC50 is < 1 µM. Turning to `CC(C)=C(F)CNC(=O)[C@@H]1C[C@@H](F)CN1C(=O)Cn1nc(C(N)=O)c2cc(C#Cc3ncccn3)ccc21` [Compound 45, 1-(2-((2S,4R)-4-fluoro-2-(2-fluoro-3-methylbut-2-enylcarbamoyl)pyrrolidin-1-yl)-2-oxoethyl)-5-(pyrimidin-2-ylethynyl)-1H-indazole-3-carboxamide], the IC50 was < 1 µM.

Regarding `NC(=O)c1nn(CC(=O)N2C[C@H](F)C[C@H]2C(=O)Nc2cccc(Br)n2)c2ccc(C#Cc3ncc(F)cn3)cc12` [Compound 46, 1-(2-((2S,4R)-2-(6-bromopyridin-2-ylcarbamoyl)-4-fluoropyrrolidin-1-yl)-2-oxoethyl)-5-((5-fluoropyrimidin-2-yl)ethynyl)-1H-indazole-3-carboxamide], the IC50 is < 1 µM. Turning to `NC(=O)c1nn(CC(=O)N2C[C@H](F)C[C@H]2C(=O)Nc2cccc(-c3ccccc3Cl)n2)c2ccc(C#Cc3ncccn3)cc12` [Compound 47, 1-(2-((2S,4R)-2-(6-(2-chlorophenyl)pyridin-2-ylcarbamoyl)-4-fluoropyrrolidin-1-yl)-2-oxoethyl)-5-(pyrimidin-2-ylethynyl)-1H-indazole-3-carboxamide], the IC50 was < 1 µM. The result for `NC(=O)c1nn(CC(=O)N2C[C@H](F)C[C@H]2C(=O)Nc2cccc(Br)n2)c2ccc(C#Cc3ccccn3)cc12` [Compound 48, 1-(2-((2S,4R)-2-(6-bromopyridin-2-ylcarbamoyl)-4-fluoropyrrolidin-1-yl)-2-oxoethyl)-5-(pyridin-2-ylethynyl)-1H-indazole-3-carboxamide] reads < 1 µM; that for `NC(=O)c1nn(CC(=O)N2C[C@H](F)C[C@H]2C(=O)Nc2cccc(-c3ccc(F)cc3Cl)c2F)c2ccc(C#Cc3ncccn3)cc12` [Compound 49, 1-(2-((2S,4R)-2-(2′-chloro-2,4′-difluorobiphenyl-3-ylcarbamoyl)-4-fluoropyrrolidin-1-yl)-2-oxoethyl)-5-(pyrimidin-2-ylethynyl)-1H-indazole-3-carboxamide], < 1 µM. As for `NC(=O)c1nn(CC(=O)N2C[C@H](F)C[C@H]2C(=O)Nc2cccc(-c3cn[nH]c3)n2)c2ccc(C#Cc3ncccn3)cc12` [Compound 50, 1-(2-((2S,4R)-2-(6-(1H-pyrazol-4-yl)pyridin-2-ylcarbamoyl)-4-fluoropyrrolidin-1-yl)-2-oxoethyl)-5-(pyrimidin-2-ylethynyl)-1H-indazole-3-carboxamide], the IC50 is < 1 µM.
